Measured values reported in US8552184B2, “Compounds and methods for treating disorders related to glucose metabolism” (Melior Pharmaceuticals I, Inc., priority 2008, dated 2013).
Entries after “also recorded” stand apart in the source; their conditions may differ.

Legend:
CD1 male mice [1] = assay: Oral glucose tolerance test (mouse model of hyperglycemia / type II diabetes); assay type: in vivo; settings: for Effect on blood glucose levels (in words): mouse model of hyperglycemia, high glucose load
Text: Type II diabetes is characterized by high blood glucose levels in the presence of normal amounts of insulin. Animal models of type II diabetes involve administering high levels of glucose and measuring blood glucose levels and the ability of the experimental animal to maintain glucose homeostasis over time. Several pharmacological structural classes can effectively regulate this hyperglycemic response including sulfonylureas, thiazoladinediones (PPARγ agonists; glitazones) or metformin (glucophage). These drug classes are also clinically approved for use in humans. In one present study, a mouse model of hyperglycemia has been established by administering high levels of glucose to mice.
CD1 male mice (Harlan, Indianapolis, Ind.) of between 8 and 10 weeks of age were fasted 18 hours prior to the start of the study. All blood glucose levels were measured using an Accu-Check Aviva glucose monitors with Aviva glucose test strips from a blood drop derived from the mouse tail. Prior to any treatment, baseline levels of blood glucose were measured in fasted mice. Thirty minutes after baseline measurement, Compound 101 or vehicle was administered via intravenous administration. Thirty minutes after compound administration, animals were administered an oral solution (via gavage) of glucose in distilled water. The dose of glucose was 1.5 g/Kg of body weight. Blood glucose levels were measured 15, 30, 60, 90 and 120 minutes after glucose challenge. There were 6 mice per treatment group.
Blood glucose levels were taken from treated and untreated groups at the times above and measured for concentration of glucose in milligram per deciliter of blood of sample. Average values were calculated for each time point from each group and summarized after performing statistical analysis in Table III below:
After plotting the concentration of blood glucose level over time of treated verses non-treated groups, the area under each curve was calculated to determine the glucose exposure of the treated groups of mice over time. A Student's t test with a p value of <0.001 was performed to generate a standard deviation for the average calculated glucose exposure of the group treated with Compound 101 as compared to the group treated with vehicle alone.

CD1 male mice [2] = assay: as above; assay type: in vivo; settings: area under blood glucose vs time curve; 7 mg/kg intravenous; oral glucose 1.5 g/Kg; p < 0.01 vs vehicle

With Cc1cccc(Oc2c[nH]c(=O)[nH]c2=O)c1 [Compound 101, 5-(m-tolyloxy)pyrimidine-2,4(1H,3H)-dione] the “Blood glucose levels, AVG ± SEM” value (CD1 male mice [1]; 0 min, baseline in fasted mice before treatment, Compound 101 group (7 mg/kg intravenous given at 30 min)) was 62.0 ± 13.1 mg/dL, the “Blood glucose levels, AVG ± SEM” value (CD1 male mice [1]; 75 minutes (15 min after oral glucose 1.5 g/Kg), 7 mg/kg intravenous, 30 min before glucose) was 119.6 ± 36.0 mg/dL and the “Blood glucose levels, AVG ± SEM” value (CD1 male mice [1]; 90 minutes (30 min after oral glucose 1.5 g/Kg), 7 mg/kg intravenous, 30 min before glucose) was 156.4 ± 55.9 mg/dL. For the same compound, the “Blood glucose levels, AVG ± SEM” value (CD1 male mice [1]; 120 minutes (60 min after oral glucose 1.5 g/Kg), 7 mg/kg intravenous, 30 min before glucose) was 152.2 ± 33.9 mg/dL, the “Blood glucose levels, AVG ± SEM” value (CD1 male mice [1]; 150 minutes (90 min after oral glucose 1.5 g/Kg), 7 mg/kg intravenous, 30 min before glucose) was 107.8 ± 34.1 mg/dL and the “Blood glucose levels, AVG ± SEM” value (CD1 male mice [1]; 180 minutes (120 min after oral glucose 1.5 g/Kg), 7 mg/kg intravenous, 30 min before glucose) was 102.6 ± 39.9 mg/dL. The “Effect on blood glucose levels (in words)” value (CD1 male mice [1]) was “effective in reducing blood glucose levels; also recorded: effectively controls glucose levels in vivo” and the “Glucose Exposure (Area Under the Curve; AUC), blood glucose levels AUC” value (CD1 male mice [2]) was 8424.7 ± 1922.5 mg·min/dL.
In the case of CN(C)C(=N)N=C(N)N [metformin, reference compound], the “Effect on blood glucose levels (in words)” value (CD1 male mice [1]) is reported as “can effectively reduce the blood glucose load”.
